Results taken from the kinase profiling compilation of Christmann-Franck et al. (2016).

How the values were obtained:
Assay in all cases: KINOMEscan competition binding
Settings in all cases: compound 10.0 µM
[1] = biological target: SGK3 (human) (UniProt Q96BR1)
[2] = biological target: TNK1 (human) (UniProt Q13470)
[3] = biological target: STK17B (human) (UniProt O94768)
[4] = biological target: NEK3 (human) (UniProt P51956)
[5] = biological target: MST4 (human) (UniProt Q9P289)
[6] = biological target: MELK (human) (UniProt Q14680)
[7] = biological target: MARK1 (human) (UniProt Q9P0L2)
[8] = biological target: FLT3 (human) (UniProt P36888)
[9] = biological target: PKN2 (human) (UniProt Q16513)
Sequence of PKN2 (human) (Q16513 whole entry, looked up): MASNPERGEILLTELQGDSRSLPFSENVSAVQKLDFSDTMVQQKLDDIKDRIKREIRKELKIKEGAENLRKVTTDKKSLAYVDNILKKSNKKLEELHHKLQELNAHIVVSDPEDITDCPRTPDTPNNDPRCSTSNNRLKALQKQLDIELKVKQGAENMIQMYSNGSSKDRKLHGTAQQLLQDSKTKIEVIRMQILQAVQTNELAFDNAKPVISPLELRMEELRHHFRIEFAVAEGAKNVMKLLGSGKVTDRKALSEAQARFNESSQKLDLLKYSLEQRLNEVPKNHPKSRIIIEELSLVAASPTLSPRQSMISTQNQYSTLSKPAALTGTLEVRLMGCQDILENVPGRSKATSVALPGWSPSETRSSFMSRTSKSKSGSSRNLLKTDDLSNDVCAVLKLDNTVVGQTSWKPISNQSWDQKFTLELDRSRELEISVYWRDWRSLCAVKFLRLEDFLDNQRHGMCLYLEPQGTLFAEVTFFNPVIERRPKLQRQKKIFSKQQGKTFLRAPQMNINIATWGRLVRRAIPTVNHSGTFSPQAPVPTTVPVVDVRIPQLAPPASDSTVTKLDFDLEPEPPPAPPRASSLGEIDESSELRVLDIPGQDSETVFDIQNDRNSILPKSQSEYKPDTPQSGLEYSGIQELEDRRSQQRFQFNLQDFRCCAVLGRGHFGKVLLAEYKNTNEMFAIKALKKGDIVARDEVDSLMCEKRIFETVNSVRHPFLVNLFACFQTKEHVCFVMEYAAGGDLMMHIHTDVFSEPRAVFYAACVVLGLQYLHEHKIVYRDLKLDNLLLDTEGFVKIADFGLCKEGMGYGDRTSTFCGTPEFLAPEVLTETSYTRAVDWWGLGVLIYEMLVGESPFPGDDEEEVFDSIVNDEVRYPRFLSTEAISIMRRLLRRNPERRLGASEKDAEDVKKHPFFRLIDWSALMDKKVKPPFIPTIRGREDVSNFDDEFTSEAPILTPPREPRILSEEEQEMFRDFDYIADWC

[10] = biological target: FYN (human) (UniProt P06241)
[11] = biological target: LTK (human) (UniProt P29376)
[12] = biological target: HIPK4 (human) (UniProt Q8NE63)
Sequence of HIPK4 (human) (Q8NE63 whole entry, looked up): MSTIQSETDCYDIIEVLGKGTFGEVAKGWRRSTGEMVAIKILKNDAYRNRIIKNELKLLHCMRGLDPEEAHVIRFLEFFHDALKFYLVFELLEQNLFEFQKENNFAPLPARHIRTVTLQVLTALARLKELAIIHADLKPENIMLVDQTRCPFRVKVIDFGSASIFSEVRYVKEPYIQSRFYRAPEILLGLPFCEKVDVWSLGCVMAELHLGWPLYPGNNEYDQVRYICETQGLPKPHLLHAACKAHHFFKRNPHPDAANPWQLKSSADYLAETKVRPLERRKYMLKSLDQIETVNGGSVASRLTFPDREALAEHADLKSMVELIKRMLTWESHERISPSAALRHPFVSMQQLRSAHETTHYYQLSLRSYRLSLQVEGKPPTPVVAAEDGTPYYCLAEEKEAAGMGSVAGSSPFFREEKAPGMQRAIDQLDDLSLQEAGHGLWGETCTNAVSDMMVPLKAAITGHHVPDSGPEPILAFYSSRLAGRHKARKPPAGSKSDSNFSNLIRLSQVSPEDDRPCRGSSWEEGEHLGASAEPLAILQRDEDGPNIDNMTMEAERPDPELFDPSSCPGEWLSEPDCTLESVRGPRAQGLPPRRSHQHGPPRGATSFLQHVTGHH

[13] = biological target: AXL (human) (UniProt P30530)
[14] = biological target: CDK7 (human) (UniProt P50613)
[15] = biological target: PIK3CB (human) (UniProt P42338)
[16] = biological target: BRSK1 (human) (UniProt Q8TDC3)
[17] = biological target: STK38 (human) (UniProt Q15208)
[18] = biological target: MAP3K10 (human) (UniProt Q02779)
[19] = system: FLT3 (human), P36888 [D835H]
[20] = biological target: EPHB2 (human) (UniProt P29323)
[21] = system: KIT (human), P10721 [V559D]
[22] = biological target: CDC42BPB (human) (UniProt Q9Y5S2)
[23] = biological target: CDK9 (human) (UniProt P50750)
[24] = biological target: SRPK3 (human) (UniProt Q9UPE1)
[25] = biological target: ERN1 (human) (UniProt O75460)
Sequence of ERN1 (human) (O75460 whole entry, looked up): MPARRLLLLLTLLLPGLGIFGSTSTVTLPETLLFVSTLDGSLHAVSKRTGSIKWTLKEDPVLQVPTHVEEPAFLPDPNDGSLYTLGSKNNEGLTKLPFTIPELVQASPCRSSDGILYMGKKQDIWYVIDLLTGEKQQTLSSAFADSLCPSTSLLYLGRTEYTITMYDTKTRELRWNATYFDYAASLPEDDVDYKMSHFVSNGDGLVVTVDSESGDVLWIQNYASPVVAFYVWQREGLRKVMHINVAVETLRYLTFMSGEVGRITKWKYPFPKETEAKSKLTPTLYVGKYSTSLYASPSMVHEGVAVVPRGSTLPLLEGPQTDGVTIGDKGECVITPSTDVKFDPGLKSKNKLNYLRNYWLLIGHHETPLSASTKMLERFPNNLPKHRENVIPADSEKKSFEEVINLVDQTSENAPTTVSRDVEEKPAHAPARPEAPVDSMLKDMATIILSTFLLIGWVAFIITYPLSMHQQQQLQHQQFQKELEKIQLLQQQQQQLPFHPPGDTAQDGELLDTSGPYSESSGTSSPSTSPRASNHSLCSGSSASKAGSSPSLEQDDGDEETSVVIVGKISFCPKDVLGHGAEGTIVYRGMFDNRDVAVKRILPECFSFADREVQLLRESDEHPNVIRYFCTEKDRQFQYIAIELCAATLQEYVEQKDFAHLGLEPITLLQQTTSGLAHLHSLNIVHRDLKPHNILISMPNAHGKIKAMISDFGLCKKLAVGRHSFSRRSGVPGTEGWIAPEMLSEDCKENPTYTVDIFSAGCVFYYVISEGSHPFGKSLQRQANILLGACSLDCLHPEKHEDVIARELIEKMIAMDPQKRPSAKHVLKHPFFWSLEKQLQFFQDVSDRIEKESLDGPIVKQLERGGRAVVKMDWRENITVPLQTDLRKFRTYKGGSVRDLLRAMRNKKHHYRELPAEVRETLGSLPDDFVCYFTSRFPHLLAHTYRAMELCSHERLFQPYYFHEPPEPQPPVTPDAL

[26] = biological target: PAK2 (human) (UniProt Q13177)
[27] = biological target: CLK1 (human) (UniProt P49759)
[28] = biological target: GSK3B (human) (UniProt P49841)
Sequence of GSK3B (human) (P49841 whole entry, looked up): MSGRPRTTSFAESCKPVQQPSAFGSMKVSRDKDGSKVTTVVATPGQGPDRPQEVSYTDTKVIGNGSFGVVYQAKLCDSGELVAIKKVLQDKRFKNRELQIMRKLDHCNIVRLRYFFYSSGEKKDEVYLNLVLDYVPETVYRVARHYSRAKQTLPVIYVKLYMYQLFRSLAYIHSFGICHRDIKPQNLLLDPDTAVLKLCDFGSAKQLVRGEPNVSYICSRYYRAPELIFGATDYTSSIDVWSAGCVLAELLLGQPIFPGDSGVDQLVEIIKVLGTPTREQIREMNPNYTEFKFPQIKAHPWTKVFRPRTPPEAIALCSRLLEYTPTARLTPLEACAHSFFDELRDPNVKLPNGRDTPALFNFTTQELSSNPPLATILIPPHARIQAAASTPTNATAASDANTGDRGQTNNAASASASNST

[29] = biological target: CDK18 (human) (UniProt Q07002)
[30] = biological target: FGFR1 (human) (UniProt P11362)
Sequence of FGFR1 (human) (P11362 whole entry, looked up): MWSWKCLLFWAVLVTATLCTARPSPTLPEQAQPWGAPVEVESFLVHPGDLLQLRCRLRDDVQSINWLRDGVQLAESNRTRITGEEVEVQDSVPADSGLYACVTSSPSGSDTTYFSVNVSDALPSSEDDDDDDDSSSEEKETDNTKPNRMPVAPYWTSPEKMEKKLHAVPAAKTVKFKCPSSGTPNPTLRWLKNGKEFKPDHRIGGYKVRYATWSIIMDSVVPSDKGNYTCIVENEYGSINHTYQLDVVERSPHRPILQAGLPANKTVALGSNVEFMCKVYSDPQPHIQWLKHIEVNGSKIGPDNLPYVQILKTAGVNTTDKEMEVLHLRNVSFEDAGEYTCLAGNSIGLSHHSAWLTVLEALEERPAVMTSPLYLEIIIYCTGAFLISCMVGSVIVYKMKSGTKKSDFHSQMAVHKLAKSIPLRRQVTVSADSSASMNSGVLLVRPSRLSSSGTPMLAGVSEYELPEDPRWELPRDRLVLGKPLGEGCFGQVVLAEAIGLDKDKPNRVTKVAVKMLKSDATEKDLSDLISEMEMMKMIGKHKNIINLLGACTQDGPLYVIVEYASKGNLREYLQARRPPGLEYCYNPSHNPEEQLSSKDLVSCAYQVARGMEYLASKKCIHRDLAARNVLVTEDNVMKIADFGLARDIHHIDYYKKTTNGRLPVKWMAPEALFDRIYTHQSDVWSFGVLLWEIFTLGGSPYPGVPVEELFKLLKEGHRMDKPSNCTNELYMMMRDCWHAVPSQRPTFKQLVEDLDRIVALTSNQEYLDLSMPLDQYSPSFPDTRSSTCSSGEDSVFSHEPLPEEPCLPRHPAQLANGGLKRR

[31] = biological target: SRPK2 (human) (UniProt P78362)
[32] = system: PIK3CA (human), P42336 [E545A]
[33] = biological target: RIOK3 (human) (UniProt O14730)
[34] = biological target: ADCK3 (human) (UniProt Q8NI60)
Sequence of ADCK3 (human) (Q8NI60 whole entry, looked up): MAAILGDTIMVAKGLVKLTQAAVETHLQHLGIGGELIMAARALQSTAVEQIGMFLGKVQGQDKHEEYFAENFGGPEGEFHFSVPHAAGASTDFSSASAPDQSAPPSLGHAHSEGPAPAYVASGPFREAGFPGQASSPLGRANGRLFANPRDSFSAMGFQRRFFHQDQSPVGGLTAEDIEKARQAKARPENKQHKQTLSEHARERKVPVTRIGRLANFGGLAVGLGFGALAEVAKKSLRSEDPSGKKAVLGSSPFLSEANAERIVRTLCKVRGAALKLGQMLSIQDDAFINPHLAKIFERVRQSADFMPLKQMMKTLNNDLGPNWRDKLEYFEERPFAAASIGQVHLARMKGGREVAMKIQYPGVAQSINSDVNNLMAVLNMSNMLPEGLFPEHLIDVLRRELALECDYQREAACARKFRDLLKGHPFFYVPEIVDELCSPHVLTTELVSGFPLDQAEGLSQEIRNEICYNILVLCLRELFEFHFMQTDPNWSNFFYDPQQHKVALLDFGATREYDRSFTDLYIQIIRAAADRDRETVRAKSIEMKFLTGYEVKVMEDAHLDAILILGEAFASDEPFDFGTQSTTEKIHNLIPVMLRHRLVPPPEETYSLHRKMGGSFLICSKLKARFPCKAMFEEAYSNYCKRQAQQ

[35] = biological target: MAPK10 (human) (UniProt P53779)
Sequence of MAPK10 (human) (P53779 whole entry, looked up): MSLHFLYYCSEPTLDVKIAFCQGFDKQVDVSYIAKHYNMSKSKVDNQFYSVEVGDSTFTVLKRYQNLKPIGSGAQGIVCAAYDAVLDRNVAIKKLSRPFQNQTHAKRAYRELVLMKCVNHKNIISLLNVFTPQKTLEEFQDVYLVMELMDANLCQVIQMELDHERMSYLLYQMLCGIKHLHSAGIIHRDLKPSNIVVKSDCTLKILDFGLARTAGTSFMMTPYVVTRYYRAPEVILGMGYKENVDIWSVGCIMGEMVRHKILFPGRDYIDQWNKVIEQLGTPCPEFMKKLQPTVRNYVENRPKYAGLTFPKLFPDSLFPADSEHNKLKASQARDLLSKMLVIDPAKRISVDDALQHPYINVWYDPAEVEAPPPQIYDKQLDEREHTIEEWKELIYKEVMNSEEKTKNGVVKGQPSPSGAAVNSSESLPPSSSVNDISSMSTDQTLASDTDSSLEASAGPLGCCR

[36] = biological target: ROCK1 (human) (UniProt Q13464)
[37] = biological target: TAOK3 (human) (UniProt Q9H2K8)
[38] = biological target: MAP3K11 (human) (UniProt Q16584)
[39] = biological target: BTK (human) (UniProt Q06187)
[40] = biological target: PIP5K1C (human) (UniProt O60331)
[41] = biological target: JAK1 JH1 catalytic (human) (UniProt P23458)

In the case of COC(=O)Nc1ccc(-c2nc(N3CCOCC3)c3cnn(C4CCN(C(=O)OC)CC4)c3n2)cc1, the kinase still bound, per cent of control [1] is reported as 99%, the kinase still bound, per cent of control [2] is reported as 100% and the kinase still bound, per cent of control [3] is reported as 75%. It also gave a kinase still bound, per cent of control [4] of 100%, a kinase still bound, per cent of control [5] of 80% and a kinase still bound, per cent of control [6] of 86%. It also gave a kinase still bound, per cent of control [7] of 100%, a kinase still bound, per cent of control [8] of 100% and a kinase still bound, per cent of control [9] of 100%. The kinase still bound, per cent of control [10] was 99%, the kinase still bound, per cent of control [11] was 87% and the kinase still bound, per cent of control [12] was 97%. It also gave a kinase still bound, per cent of control [13] of 100%, a per cent of control [14] of 67% and a kinase still bound, per cent of control [15] of 42%. The kinase still bound, per cent of control [16] was 95%, the kinase still bound, per cent of control [17] was 88% and the kinase still bound, per cent of control [18] was 100%. The kinase still bound, per cent of control [19] was 91%, the kinase still bound, per cent of control [20] was 100% and the kinase still bound, per cent of control [21] was 96%. It also gave a kinase still bound, per cent of control [22] of 96%, a per cent of control [23] of 100% and a kinase still bound, per cent of control [24] of 100%. The kinase still bound, per cent of control [25] was 100%, the kinase still bound, per cent of control [26] was 91% and the kinase still bound, per cent of control [27] was 100%. For the same molecule, the kinase still bound, per cent of control [28] was 100%, the per cent of control [29] was 100% and the kinase still bound, per cent of control [30] was 100%. For the same molecule, the kinase still bound, per cent of control [31] was 100%, the kinase still bound, per cent of control [32] was 5.5% and the kinase still bound, per cent of control [33] was 100%. For the same molecule, the kinase still bound, per cent of control [34] was 80%, the kinase still bound, per cent of control [35] was 100% and the kinase still bound, per cent of control [36] was 82%. It also gave a kinase still bound, per cent of control [37] of 94%, a kinase still bound, per cent of control [38] of 97% and a kinase still bound, per cent of control [39] of 99%. The kinase still bound, per cent of control [40] was 100% and the kinase still bound, per cent of control [41] was 100%.
Work on COc1ccc(-c2ccc3c(N4CCOCC4)nc(N4C[C@@H](C)O[C@@H](C)C4)nc3n2)cc1CO yielded a kinase still bound, per cent of control [1] of 100%, a kinase still bound, per cent of control [2] of 100% and a kinase still bound, per cent of control [3] of 100%. For the same molecule, the kinase still bound, per cent of control [4] was 61%, the kinase still bound, per cent of control [5] was 100% and the kinase still bound, per cent of control [6] was 97%. The kinase still bound, per cent of control [7] was 100%, the kinase still bound, per cent of control [8] was 71% and the kinase still bound, per cent of control [9] was 100%. It also gave a kinase still bound, per cent of control [10] of 96%, a kinase still bound, per cent of control [11] of 96% and a kinase still bound, per cent of control [12] of 88%. The kinase still bound, per cent of control [13] was 100%, the per cent of control [14] was 73% and the kinase still bound, per cent of control [15] was 30%. It also gave a kinase still bound, per cent of control [16] of 100%, a kinase still bound, per cent of control [17] of 55% and a kinase still bound, per cent of control [18] of 98%. For the same molecule, the kinase still bound, per cent of control [19] was 100%, the kinase still bound, per cent of control [20] was 100% and the kinase still bound, per cent of control [21] was 90%. The kinase still bound, per cent of control [22] was 81%, the per cent of control [23] was 98% and the kinase still bound, per cent of control [24] was 75%. It also gave a kinase still bound, per cent of control [25] of 89%, a kinase still bound, per cent of control [26] of 91% and a kinase still bound, per cent of control [27] of 52%. The kinase still bound, per cent of control [28] was 100%, the per cent of control [29] was 100% and the kinase still bound, per cent of control [30] was 100%. It also gave a kinase still bound, per cent of control [31] of 100%, a kinase still bound, per cent of control [32] of 2.4% and a kinase still bound, per cent of control [33] of 100%. For the same molecule, the kinase still bound, per cent of control [34] was 87%, the kinase still bound, per cent of control [35] was 81% and the kinase still bound, per cent of control [36] was 89%. It also gave a kinase still bound, per cent of control [37] of 90%, a kinase still bound, per cent of control [38] of 100% and a kinase still bound, per cent of control [39] of 100%. It also gave a kinase still bound, per cent of control [40] of 100% and a kinase still bound, per cent of control [41] of 84%.
